# B1: MAB20 (antibody, human IgG1, lambda, N297A, V domains shown)
# VH: EVQLVQSGGGLVKPGGSLRLSCAASGFTFSSYTMNWVRQAPGKGLEWVSSISSGSDYLYYADSVKGRFTISRDNAKNSLYLQMNSLRAEDTAVYYCARNELRWYPQAGAFDRWGQGTMVTVSS
# VL: QSVVTQPPSMSAAPGQRVTISCSGSSSYIESSYVGWYQQLPGTAPRLLIYDDDMRPSGIPDRFSGSKSGTSATLAITGLQTGDEADYYCEIWRSGLGGVFGGGTKLTVLS
# notes: also called anti-PDL1 antibody MAB20; Anti-PDL1_mAb
# Columns and labels:
# [1] = tested on: human PDL1-positive colorectal cancer LD1-2013-362125 PDX; test: Anti-tumor effect, LD1-2013-362125 PDX xenograft; type: in vivo, NU/NU mice; conditions: free loaded drug, dose not given, day 31
# Protocol: (§1) A human-derived PDL1-positive colorectal cancer LD1-2013-362125 model was revived in NU/NU mice. Once the tumor had grown to 500-800 mm^3, the tumor tissue was surgically aseptically excised, and non-tumor tissues and necrotic tissues were removed. The tumor tissue was stripped and evenly cut into tissue blocks (about 25-35 mg) of about 3 mm×3 mm×3 mm in size, and then, which were inoculated subcutaneously on the right side of NU/NU mice. Once the average tumor volume of the mice for grouping reached 156.99 mm3, the mice were grouped randomly according to the size of the tumor volume, ensuring similar tumor volumes between groups. The day of grouping was defined as day 0. After the start of dosing, the body weight and tumor size of the mice were measured twice a week, and the mice were dosed once a week, for three doses. Clinical symptoms observed during the experiment were recorded. The tumor volume was calculated according to the following formula: tumor volume (mm3)=½×(a×b2) (wherein a represented the long diameter, and b represented the short diameter).
# [2] = tested on: human PDL1-positive gastric cancer LD1-0017-200636 PDX; test: Anti-tumor effect, LD1-0017-200636 PDX xenograft; type: in vivo, NU/NU mice; conditions: free loaded drug, dose not given, day 21
# Protocol: as §1, with “gastric” for “colorectal”, “LD1-0017-200636” for “LD1-2013-362125”, “30-60” for “25-35”, “138.70” for “156.99”
# [3] = tested on: human PDL1-positive cervical cancer LD1-0010-200614 PDX; test: Anti-tumor effect, LD1-0010-200614 PDX xenograft; type: in vivo, Balb/c nude mice; conditions: free loaded drug, dose not given, day 35
# Protocol: as §1, with “cervical” for “colorectal”, “LD1-0010-200614” for “LD1-2013-362125”, “Balb/c nude” for “NU/NU”, “146.74” for “156.99”
# [4] = tested on: human non-small cell lung cancer LU6437 PDX; test: Anti-tumor effect, LU6437 PDX xenograft; type: in vivo, BALB/c nude mice; conditions: 3 mg/kg, once a week for three doses, day 21
# Protocol: A revived tumor tissue was harvested from HuPrime® lung cancer xenograft model LU6437 tumor-bearing mice and cut into tumor blocks with a diameter of 2-3 mm, which were inoculated subcutaneously at the right anterior scapula of BALB/c nude mice. […] The average volume was 253.70 mm^3 in the actual groups. The day of grouping was defined as day 0. After the start of dosing, the mice were dosed once a week, for three doses, and the body weight and tumor size of the mice were measured twice a week. Clinical symptoms observed during the experiment were recorded. The tumor volume was calculated according to the following formula: tumor volume (mm3)=½×(a×b2) (wherein a represented the long diameter, and b represented the short diameter).
# [5] = Preliminary pre-experiment, toxicity to mice; type: in vivo; conditions: dose of 8 mg/kg
# Text: For ethical considerations, the […] was not set in the experimental design.
# human macrophages = type: cell-based
# Protocol: (§2) Since some human immune cells such as antigen-presenting cells (macrophages, dendritic cells, etc.) express PDL1, the immunotoxicity of PDL1-targeted antibody-conjugated drugs is an inevitable problem. Human dendritic cells and macrophages, after induced differentiation, were digested and viable cells were counted using Vi-Cell XR cytometer. The cell suspension was adjusted to an appropriate concentration with a culture medium. 80 μl/well of the cell suspension was added to a cell culture plate, which was supplemented with 500 IU/mL of IFN-γ. The test drug was diluted with a gradient (5-fold dilutions). 20 μl of each of the diluted test articles was taken and added to the cell suspension in the cell culture plate, and the cell culture plate was placed in an incubator and cultured for 96 hours. 50 μl/well of a CellTiter-Glo solution (purchased from Promega) that had been thawed in advance and equilibrated to room temperature was added according to CellTiter-Glo operation instructions. The wells were mixed uniformly with a microwell plate shaker for 2 minutes and maintained at room temperature for 10 minutes. The […] signal was measured using Envision 2104 plate reader. SGN-PDL1V was used as one of the control molecules and was disclosed in U.S. Patent No. US 20210101982 A1.
# human dendritic cells = type: cell-based
# Protocol: as §2
# [6] = biological target: T1, PDL1 on PDL1-positive cells NCI-H292 and NCI-H441 (UniProt Q9NZQ7 19-290, limits assumed); test: flow cytometry on NCI-H292 cells, goat anti-human IgG detection
# T1 construct: whole, on cells; Human tumor cell lines; also called CD274; B7-H1
# T1 sequence (Q9NZQ7 19-290 limits assumed): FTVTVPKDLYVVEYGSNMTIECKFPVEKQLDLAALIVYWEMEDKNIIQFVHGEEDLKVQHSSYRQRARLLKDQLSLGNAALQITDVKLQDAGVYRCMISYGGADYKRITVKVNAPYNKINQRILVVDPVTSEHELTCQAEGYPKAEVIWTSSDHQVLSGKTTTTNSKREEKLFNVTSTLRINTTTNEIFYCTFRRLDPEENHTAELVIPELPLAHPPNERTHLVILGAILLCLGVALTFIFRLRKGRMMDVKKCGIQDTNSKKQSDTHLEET
molecule,measurement,setting,value
"CC[C@@]1(O)C(=O)OCc2c1cc1n(c2=O)Cc2c-1nc1cc3c(cc1c2CCCO)OCO3 [A1.3, (S)-7-ethyl-7-hydroxy-14-(3-hydroxypropyl)-10,13-dihydro-11H-[1,3]dioxolo[4,5-g]pyrano[3′,4′,6,7]indolizino[1,2-b]quinoline-8,11(7H)-dione]",TGI,[1],37.16%
same,TGI,[2],34.12%
same,TGI,[3],56.5%
SGN-PDL1V: reference ADC of WO 2021067776 A1: SGN-PDL1V antibody moiety conjugated to MC-VC-PABC-MMAE [reference compound],TGI,[4],24.11%
same,toxicity to mice,[5],severely lethal toxicity
same,concentration at which non-specific killing resulted,human macrophages,above 20 nM
same,concentration at which non-specific killing resulted,human dendritic cells,above 20 nM
B1,binding result,[6],binds

# Source: patent US20260199499A1, “ANTI-PDL1 ANTIBODY-DRUG CONJUGATE AND USE” (SHANGHAI HENLIUS BIOTECH, INC., priority 2023, published 2026)
